We go through one compound from article PMC11820915, “Identification of HIV-1 Reverse Transcriptase-Associated Ribonuclease H Inhibitors Based on 2-Hydroxy-1,4-naphthoquinone Mannich Bases” (Molecules, 2025).

One data set has as its system SARS-CoV-2. Put plainly: microbe, parasite or virus in culture. The following applies: read-out: EC50 for viral replication inhibition. It counts as cell-based.
The test system of another data set is VEROE6-EGFP cells. The following applies: read-out: CC50 cytotoxic concentration, in the presence of 2 µM CP-100356.

Consider `CC(C)C[C@H](NC(=O)OCc1ccccc1)C(=O)N[C@@H](CC1CCNC1=O)C(O)S(=O)(=O)O` (some centres unmarked) [GC-376, reference compound], for which the EC50 with SARS-CoV-2 stood at 840 ± 80 nM. The CC50 in the data set with VEROE6-EGFP cells is over 100000 nM.

As usually defined, the EC50 is the concentration giving half of the maximal effect.
